Source: patent publication US20230125667A1, “NOVEL TDZD ANALOGS AS AGENTS THAT DELAY, PREVENT, OR REVERSE AGE-ASSOCIATED DISEASES AND AS ANTI-CANCER AND ANTILEUKEMIC AGENTS” (United States Government as represented by the Department …, priority 2020, published 2023)
Where two headings read alike, the source gives them in different places.

What was measured:
SK-MEL-2 = test: NCI-60 growth inhibition: SK-MEL-2 (Melanoma); assay type: cell-based, human
CCRF-CEM = test: NCI-60 growth inhibition: CCRF-CEM (Leukemia); assay type: cell-based, human
HS 578T = test: NCI-60 growth inhibition: HS 578T (Breast Cancer); assay type: cell-based, human
NCI-H522 = test: NCI-60 growth inhibition: NCI-H522 (Non-Small-Cell Lung Cancer)
HT29 = test: NCI-60 growth inhibition: HT29 (Colon Cancer); assay type: cell-based, human
HL-60(TB) = test: NCI-60 growth inhibition: HL-60(TB) (Leukemia); assay type: cell-based, human; settings: HL-60(TB) (Leukemia), read-out: GI50
OVCAR-3 = test: NCI-60 growth inhibition: OVCAR-3 (Ovarian Cancer); assay type: cell-based, human
RPMI-8226 = test: NCI-60 growth inhibition: RPMI-8226 (Leukemia); assay type: cell-based, human
IGROV1 = test: NCI-60 growth inhibition: IGROV1 (Ovarian Cancer); assay type: cell-based, human
HOP-92 = test: NCI-60 growth inhibition: HOP-92 (Non-Small-Cell Lung Cancer); assay type: cell-based, human
MDA-MB-468 = test: NCI-60 growth inhibition: MDA-MB-468 (Breast Cancer); assay type: cell-based, human; settings: MDA-MB-468 (Breast Cancer), read-out: GI50
ACHN = test: NCI-60 growth inhibition: ACHN (Renal Cancer); assay type: cell-based, human
CAKI-1 = test: NCI-60 growth inhibition: CAKI-1 (Renal Cancer); assay type: cell-based, human
BT-549 = test: NCI-60 growth inhibition: BT-549 (Breast Cancer); assay type: cell-based, human
TK-10 = test: NCI-60 growth inhibition: TK-10 (Renal Cancer); assay type: cell-based, human
HCT-15 = test: NCI-60 growth inhibition: HCT-15 (Colon Cancer); assay type: cell-based, human
PC-3 = test: NCI-60 growth inhibition: PC-3 (Prostate Cancer); assay type: cell-based, human
OVCAR-5 = test: NCI-60 growth inhibition: OVCAR-5 (Ovarian Cancer); assay type: cell-based, human
MCF7 = test: NCI-60 growth inhibition: MCF7 (Breast Cancer); assay type: cell-based, human
786-0 = test: NCI-60 growth inhibition: 786-0 (Renal Cancer); assay type: cell-based, human
UO-31 = test: NCI-60 growth inhibition: UO-31 (Renal Cancer); assay type: cell-based, human
OVCAR-8 = test: NCI-60 growth inhibition: OVCAR-8 (Ovarian Cancer); assay type: cell-based, human
SF-539 = test: NCI-60 growth inhibition: SF-539 (CNS Cancer); assay type: cell-based, human
UACC-257 = test: NCI-60 growth inhibition: UACC-257 (Melanoma); assay type: cell-based, human
COLO 205 = test: NCI-60 growth inhibition: COLO 205 (Colon Cancer); assay type: cell-based, human
MDA-MB-435 = test: NCI-60 growth inhibition: MDA-MB-435 (Melanoma); assay type: cell-based, human
U251 = test: NCI-60 growth inhibition: U251 (CNS Cancer); assay type: cell-based, human
M14 = test: NCI-60 growth inhibition: M14 (Melanoma); assay type: cell-based, human
NCI-H460 = test: NCI-60 growth inhibition: NCI-H460 (Non-Small-Cell Lung Cancer); assay type: cell-based, human
OVCAR-4 = test: NCI-60 growth inhibition: OVCAR-4 (Ovarian Cancer); assay type: cell-based, human
SK-MEL-5 = test: NCI-60 growth inhibition: SK-MEL-5 (Melanoma); assay type: cell-based, human
DU-145 = test: NCI-60 growth inhibition: DU-145 (Prostate Cancer); assay type: cell-based, human
LOX IMVI = test: NCI-60 growth inhibition: LOX IMVI (Melanoma); assay type: cell-based, human
MDA-MB-231/ATCC = test: NCI-60 growth inhibition: MDA-MB-231/ATCC (Breast Cancer); assay type: cell-based, human
HCT-116 = test: NCI-60 growth inhibition: HCT-116 (Colon Cancer)
NCI-H23 = test: NCI-60 growth inhibition: NCI-H23 (Non-Small-Cell Lung Cancer); assay type: cell-based, human
MOLT-4 = test: NCI-60 growth inhibition: MOLT-4 (Leukemia); assay type: cell-based, human
SR = test: NCI-60 growth inhibition: SR (Leukemia); assay type: cell-based, human
EKVX = test: NCI-60 growth inhibition: EKVX (Non-Small-Cell Lung Cancer); assay type: cell-based, human
[1] = tested on: MV4-11 cell line (myelomonocytic leukemia); settings: MV4-11 cells; for LD50, 7AAD (μM) 24 h / LD50, Alamar blue (μM) 24 h / LD50, YOPRO (μM) 24 h: MMB-TDZD analogs (Table 2); for LD50: values in text
T-47D = test: NCI-60 growth inhibition: T-47D (Breast Cancer); assay type: cell-based, human
SNB-75 = test: NCI-60 growth inhibition: SNB-75 (CNS Cancer); assay type: cell-based, human
UACC-62 = test: NCI-60 growth inhibition: UACC-62 (Melanoma); assay type: cell-based, human
SF-268 = test: NCI-60 growth inhibition: SF-268 (CNS Cancer); assay type: cell-based, human
MALME-3M = test: NCI-60 growth inhibition: MALME-3M (Melanoma); assay type: cell-based, human
SK-MEL-28 = test: NCI-60 growth inhibition: SK-MEL-28 (Melanoma); assay type: cell-based, human
A498 = test: NCI-60 growth inhibition: A498 (Renal Cancer); assay type: cell-based, human
SNB-19 = test: NCI-60 growth inhibition: SNB-19 (CNS Cancer); assay type: cell-based, human
SW-620 = test: NCI-60 growth inhibition: SW-620 (Colon Cancer); assay type: cell-based, human
SN12C = test: NCI-60 growth inhibition: SN12C (Renal Cancer); assay type: cell-based, human

Compound `C=C1C(=O)O[C@H]2[C@H]1CC/C(COC(=O)NCc1ccc(Cn3c(=O)sn(CCCCC)c3=O)cc1)=C\CC[C@@]1(C)O[C@@H]21` [BSK-218] has a GI50 (SK-MEL-2) of 2.42 µM, a GI50 (CCRF-CEM) of 0.36 µM and a GI50 (HS 578T) of 2.79 µM. It also gave a GI50 (NCI-H522; NCI-H522 (Non-Small-Cell Lung Cancer)) of 1.59 µM, a GI50 (HT29) of 2.09 µM and a GI50 (HL-60(TB)) of 1.1 µM. For the same compound, the GI50 (OVCAR-3) was 1.41 µM, the GI50 (RPMI-8226) was 1.12 µM and the GI50 (IGROV1) was 2.11 µM. It also gave a GI50 (HOP-92) of 1.38 µM, a GI50 (MDA-MB-468) of 1.19 µM and a GI50 (ACHN) of 1.68 µM. It also gave a GI50 (CAKI-1) of 2.84 µM, a GI50 (BT-549) of 1.91 µM and a GI50 (TK-10) of 1.96 µM. It also gave a GI50 (HCT-15) of 1.66 µM, a GI50 (PC-3) of 1.92 µM and a GI50 (OVCAR-5) of 2.01 µM. For the same compound, the GI50 (MCF7) was 1.79 µM, the GI50 (786-0) was 1.98 µM and the GI50 (UO-31) was 1.46 µM. For the same compound, the GI50 (OVCAR-8) was 2.26 µM, the GI50 (SF-539) was 1.64 µM and the GI50 (UACC-257) was 1.57 µM. It also gave a GI50 (COLO 205) of 1.78 µM, a GI50 (MDA-MB-435) of 1.71 µM and a GI50 (U251) of 2.2 µM. It also gave a GI50 (M14) of 1.89 µM, a GI50 (NCI-H460) of 3.42 µM and a GI50 (OVCAR-4) of 1.62 µM. It also gave a GI50 (SK-MEL-5) of 3.92 µM, a GI50 (DU-145) of 1.68 µM and a GI50 (LOX IMVI) of 1.59 µM. It also gave a GI50 (MDA-MB-231/ATCC) of 1.72 µM, a GI50 (HCT-116; HCT-116 (Colon Cancer)) of 1.73 µM and a GI50 (NCI-H23) of 1.94 µM. It also gave a GI50 (MOLT-4) of 5.9 µM, a GI50 (SR) of 2.99 µM and a GI50 (EKVX) of 1.85 µM. For the same compound, the “LD50, 7AAD (μM) 24 h” value [1] was 1.3 µM, the “LD50, Alamar blue (μM) 24 h” value [1] was 0.8 µM and the “LD50, YOPRO (μM) 24 h” value [1] was 1.07 µM. It also gave an LD50 [1] of 760 nM, a GI50 (T-47D) of 1.75 µM and a GI50 (SNB-75) of 1.59 µM. For the same compound, the GI50 (UACC-62) was 1.59 µM, the GI50 (SF-268) was 1.88 µM and the GI50 (MALME-3M) was 1.61 µM. It also gave a GI50 (SK-MEL-28) of 1.85 µM, a GI50 (A498) of 2.91 µM and a GI50 (SNB-19) of 5.06 µM. The GI50 (SW-620) was 1.31 µM and the GI50 (SN12C) was 1.71 µM.

`C=C1C(=O)O[C@H]2[C@H]1CC/C(COC(=O)NCc1ccc(Cn3c(=O)sn(-c4ccc(OC)cc4)c3=O)cc1)=C\CC[C@@]1(C)O[C@@H]21` [BSK-271] was tested, and the GI50 (SK-MEL-2; Homo sapiens) was 3.19 µM, the GI50 (CCRF-CEM; Homo sapiens) was 0.56 µM and the GI50 (HS 578T; Homo sapiens) was 2.92 µM. For the same compound, the GI50 (NCI-H522; Homo sapiens, NCI-H522) was 1.67 µM, the GI50 (HT29; Homo sapiens, HT-29) was 1.96 µM and the GI50 (HL-60(TB); Homo sapiens) was 2.12 µM. For the same compound, the GI50 (OVCAR-3; Homo sapiens) was 1.61 µM, the GI50 (RPMI-8226; Homo sapiens) was 2.01 µM and the GI50 (IGROV1; Homo sapiens, IGROV-1) was 2.85 µM. For the same compound, the GI50 (HOP-92; Homo sapiens) was 1.61 µM, the GI50 (MDA-MB-468; Homo sapiens) was 1.53 µM and the GI50 (ACHN; Homo sapiens) was 1.73 µM. The GI50 (CAKI-1; Homo sapiens) was 2.34 µM, the GI50 (BT-549; Homo sapiens) was 4.37 µM and the GI50 (TK-10; Homo sapiens) was 1.91 µM. The GI50 (HCT-15; Homo sapiens) was 1.68 µM, the GI50 (PC-3; Homo sapiens) was 2.19 µM and the GI50 (OVCAR-5; Homo sapiens) was 2.06 µM. It also gave a GI50 (MCF7; Homo sapiens) of 1.77 µM, a GI50 (786-0; Homo sapiens) of 2.05 µM and a GI50 (UO-31; Homo sapiens) of 1.56 µM. The GI50 (OVCAR-8; Homo sapiens) was 2.37 µM, the GI50 (SF-539; Homo sapiens) was 1.96 µM and the GI50 (UACC-257; Homo sapiens) was 2.03 µM. The GI50 (COLO 205; Homo sapiens) was 1.85 µM, the GI50 (MDA-MB-435; Homo sapiens) was 1.83 µM and the GI50 (U251; Homo sapiens, U-251) was 4.11 µM. It also gave a GI50 (M14; Homo sapiens) of 2.19 µM, a GI50 (NCI-H460; Homo sapiens) of 3.7 µM and a GI50 (OVCAR-4; Homo sapiens) of 1.64 µM. The GI50 (SK-MEL-5; Homo sapiens) was 12 µM, the GI50 (DU-145; Homo sapiens) was 1.81 µM and the GI50 (LOX IMVI; Homo sapiens) was 1.73 µM. It also gave a GI50 (MDA-MB-231/ATCC; Homo sapiens) of 1.97 µM, a GI50 (HCT-116; Homo sapiens, HCT-116) of 1.93 µM and a GI50 (NCI-H23; Homo sapiens) of 2.97 µM. It also gave a GI50 (MOLT-4; Homo sapiens) of 1.93 µM, a GI50 (SR; Homo sapiens) of 0.53 µM and a GI50 (EKVX; Homo sapiens) of 3.5 µM. The “LD50, 7AAD (μM) 24 h” value [1] was 1.74 µM, the “LD50, Alamar blue (μM) 24 h” value [1] was 1.20 µM and the “LD50, YOPRO (μM) 24 h” value [1] was 2.07 µM. The LD50 [1] was 680 nM, the GI50 (T-47D; Homo sapiens, T47D) was 1.86 µM and the GI50 (SNB-75; Homo sapiens) was 3.44 µM. It also gave a GI50 (UACC-62; Homo sapiens) of 1.86 µM, a GI50 (SF-268; Homo sapiens) of 3.14 µM and a GI50 (MALME-3M; Homo sapiens) of 1.81 µM. The GI50 (SK-MEL-28; Homo sapiens) was 1.97 µM, the GI50 (A498; Homo sapiens) was 5.65 µM and the GI50 (SNB-19; Homo sapiens) was 11.7 µM. For the same compound, the GI50 (SW-620; Homo sapiens) was 1.77 µM and the GI50 (SN12C; Homo sapiens) was 2.14 µM.
